Data published in PubChem BioAssay AID1117324 (Cheminformatics & Chemogenomics Research Group (CCRG), …, 2015).
Activity calls are given as the source filed them. No rule for the calls is given here. Where a SMILES comes first, the peptide text is derived from it. Bridges are numbered along the chain shown (N, C = ends). [ ]: non-standard residue; d: D form. hArg = N=C(N)NCCCC[C@H](N)C(=O)O; Mpa = O=C(O)CCS

Test system: VEGF-stimulated ADSC/ECFC co-culture, nuclear area imaging
Experiment: nuclear area loss in endothelial-stromal co-culture, dose response, cell-based, VEGF stimulation, IC50 (AID 1117324)

Compound	IC50
CCC=CCC=CCC=CCCCCCCCC(=O)O	> 10 µM (inactive)
O=C(O)CCCc1ccc(N(CCCl)CCCl)cc1	> 10 µM (inactive)
CN(C)c1ccc(C(=C2C=CC(=[N+](C)C)C=C2)c2ccc(N(C)C)cc2)cc1	1.83 µM
ClC1=C(Cl)C2(Cl)C(CBr)CC1(Cl)C2(Cl)Cl (centres undefined)	9.97 µM (inactive)
CCCCCCCC(=O)OCC(COC(=O)CCCCCCC)OC(=O)CCCCCCC	> 10 µM (inactive)
O=C1CC(c2ccc(Cl)cc2)CC(=O)N1	> 10 µM (inactive)
CCCCc1oc2ccc(NS(C)(=O)=O)cc2c1C(=O)c1ccc(OCCCN(CCCC)CCCC)cc1	7.56 µM (inactive)
Clc1ccc(COC(Cn2ccnc2)c2ccc(Cl)cc2Cl)cc1 (centres undefined)	9.93 µM (inactive)
Clc1ccc(CO/N=C(\Cn2ccnc2)c2ccc(Cl)cc2Cl)c(Cl)c1	8.85 µM (inactive)
CCC(C)n1ncn(-c2ccc(N3CCN(c4ccc(OC[C@H]5CO[C@](Cn6cncn6)(c6ccc(Cl)cc6Cl)O5)cc4)CC3)cc2)c1=O (some centres undefined)	> 10 µM (inactive)
C[C@H]1O[C@@H](O[C@H]2CC[C@@]3(C)[C@H](CC[C@@H]4[C@@H]3C[C@@H](O)[C@]3(C)[C@@H](C5=CC(=O)OC5)CC[C@]43O)C2)C[C@H](O)[C@@H]1O[C@H]1C[C@H](O)[C@H](O[C@H]2C[C@H](O)[C@H](O[C@@H]3O[C@H](CO)[C@@H](O)[C@H](O)[C@H]3O)[C@@H](C)O2)[C@@H](C)O1	0.299 µM
Cc1ccc2c(Br)cc(Br)c(O)c2n1	> 10 µM (inactive)
COP(=S)(OC)Oc1ccc(Sc2ccc(OP(=S)(OC)OC)cc2)cc1	> 10 µM (inactive)
CC(COc1ccccc1)NN (centres undefined)	> 10 µM (inactive)
COC(=O)Nc1nc2ccc(S(=O)c3ccccc3)cc2[nH]1 (centres undefined)	> 10 µM (inactive)
COC(=O)C(Cl)C(=O)OC	> 10 µM (inactive)
COC(=O)C1=C(C)NC(C)=C(C(=O)OC(C)(C)CN(C)CCC(c2ccccc2)c2ccccc2)C1c1cccc([N+](=O)[O-])c1 (centres undefined)	> 10 µM (inactive)
O=C(O)c1ccc2[nH]cc(CCCCN3CC=C(c4ccccc4)CC3)c2c1	> 10 µM (inactive)
C[C@@H]1C[C@H]2[C@@H]3CCC4=CC(=O)C=C[C@]4(C)[C@@]3(Cl)[C@@H](O)C[C@]2(C)[C@@]1(OC(=O)c1ccco1)C(=O)CCl	> 10 µM (inactive)
Cc1ccc(C(=O)Oc2ccc(C(O)CNC(C)(C)C)cc2OC(=O)c2ccc(C)cc2)cc1 (centres undefined)	> 10 µM (inactive)
CC[C@]1(O)CC[C@H]2[C@@H]3CCC4=CCCC[C@@H]4[C@H]3CC[C@@]21C	> 10 µM (inactive)
CC(C)(C)C1CCC(CC2=C(O)c3ccccc3C(=O)C2=O)CC1 (centres undefined)	> 10 µM (inactive)
Oc1ccc(Cl)cc1Sc1cc(Cl)ccc1O	8.69 µM (inactive)
CC(C)=CCNc1ncnc2c1ncn2[C@@H]1O[C@H](CO)[C@@H](O)[C@H]1O	> 10 µM (inactive)

Compound	IC50
CCOP(=S)(OCC)SCSc1ccc(Cl)cc1	> 10 µM (inactive)
O=C(Nc1ccc([N+](=O)[O-])cc1)Nc1ccc([N+](=O)[O-])cc1	> 10 µM (inactive)
O[C@@H](c1cc(C(F)(F)F)nc2c(C(F)(F)F)cccc12)[C@H]1CCCCN1	8.61 µM (inactive)
COCC(C)N(C(=O)CCl)c1c(C)csc1C (centres undefined)	> 10 µM (inactive)
CC(=O)Nc1ccn(C2COC(COC(=O)c3ccccc3)O2)c(=O)n1 (centres undefined)	> 10 µM (inactive)
COCC(=O)O[C@]1(CCN(C)CCCc2nc3ccccc3[nH]2)CCc2cc(F)ccc2[C@@H]1C(C)C	> 10 µM (inactive)
O=[N+]([O-])C(Br)(CO)CO	> 10 µM (inactive)
CCCCCCCCCCCCCCNCCO	9.19 µM (inactive)
Cc1ccc2nc(N)[nH]c(=O)c2c1Sc1ccncc1	> 10 µM (inactive)
Cc1cc(OI)c(C(C)C)cc1-c1cc(C(C)C)c(OI)cc1C	> 10 µM (inactive)
Oc1cc(Cl)ccc1Oc1ccc(Cl)cc1Cl	8.1 µM (inactive)
COC(=O)c1ccccc1C(=O)OC	> 10 µM (inactive)
Oc1ccc(Cl)cc1Cc1cc(Cl)ccc1O	6 µM (inactive)
CCN(CC)C(=O)c1cccnc1	> 10 µM (inactive)
Clc1cc(Cl)c(OCC#CI)cc1Cl	> 10 µM (inactive)
Cc1cccc(Nc2cc(Cl)nc(SCC(=O)O)n2)c1C	> 10 µM (inactive)
COC1=C(OC)C(=O)C(CCCCCCCCCCO)=C(C)C1=O	> 10 µM (inactive)
NC(=O)[C@@H]1CSSCCC(=O)N[C@@H](CCCCN=C(N)N)C(=O)NCC(=O)N[C@@H](CC(=O)O)C(=O)N[C@@H](Cc2c[nH]c3ccccc23)C(=O)N2CCC[C@H]2C(=O)N1 ([Mpa][hArg]GDWPC-NH2; disulfide 1-7)	> 10 µM (inactive)
O=C(Nc1ccc(Oc2ccc(Cl)cc2)c(Cl)c1)c1cc(I)cc(I)c1O	6.57 µM (inactive)
Cc1ccc(O)cc1	> 10 µM (inactive)
NC(=O)c1cccnc1	> 10 µM (inactive)
NCCNc1ccc(NCCN)c2c1C(=O)c1ccncc1C2=O	> 10 µM (inactive)
CC(C(O)c1ccccc1)N(C)C/C=C/c1ccccc1 (centres undefined)	> 10 µM (inactive)
CCCCN(CCCC)CCC(O)c1cc2c(Cl)cc(Cl)cc2c2cc(C(F)(F)F)ccc12 (centres undefined)	> 10 µM (inactive)

Compound	IC50
CC(C)CCCC(C)NCCC(C)C (centres undefined)	> 10 µM (inactive)
COc1cc(C=C2CCC/C(=C\c3ccc(O)c(OC)c3)C2=O)ccc1O	6.98 µM (inactive)
CCc1oc2ccccc2c1C(=O)c1cc(I)c(O)c(I)c1	> 10 µM (inactive)
O=c1c(-c2ccccc2)c1-c1ccccc1	6.75 µM (inactive)
O=C(CCCN1CCC(O)(c2cccc(C(F)(F)F)c2)CC1)c1ccc(F)cc1	> 10 µM (inactive)
O=C1C2CC=CCC2C(=O)N1SC(Cl)(Cl)Cl (centres undefined)	> 10 µM (inactive)
Cc1c(C)c2c(c(C)c1O)CCC(C)(COc1ccc(CC3SC(=O)NC3=O)cc1)O2 (centres undefined)	> 10 µM (inactive)
CCC1Nc2cc(Cl)c(S(N)(=O)=O)cc2S(=O)(=O)N1 (centres undefined)	> 10 µM (inactive)
C=CCN1CC[C@]23CCCC[C@H]2[C@H]1Cc1ccc(O)cc13	> 10 µM (inactive)
OC[C@@H](O)[C@H](O)[C@H](O)[C@@H](O)CO	> 10 µM (inactive)
CCCCCCC[N+](CC)(CC)CCCCc1ccc(Cl)cc1	> 10 µM (inactive)
COc1ccc(/C=C/C(=O)c2ccc(OC)cc2OC)cc1	> 10 µM (inactive)
O=c1[nH]c(=O)n([C@H]2C[C@H](O)[C@@H](CO)O2)cc1Br	> 10 µM (inactive)
CSc1ccc(/C=C2/C(C)=C(CC(=O)O)c3cc(F)ccc32)cc1	> 10 µM (inactive)
Cn1cc(S(C)=O)c(=O)c2ccc(F)cc21 (centres undefined)	> 10 µM (inactive)
CCCCCCCCCCCC(=O)[O][Sn]([CH2]CCC)([CH2]CCC)[O]C(=O)CCCCCCCCCCC	> 10 µM (inactive)
CCC(C)(C)C(=O)O[C@H]1C[C@@H](C)C=C2C=C[C@H](C)[C@H](CC[C@@H]3C[C@@H](O)CC(=O)O3)[C@H]21	5.13 µM (inactive)
C[C@@H]1C[C@@H]([C@H](O)CC2CC(=O)NC(=O)C2)C(=O)[C@@H](C)C1	> 10 µM (inactive)
CCOC(=O)C1=C[C@]2(CC)CCCN3CCc4c(n1c1ccccc41)[C@@H]32	> 10 µM (inactive)
CC1=C(/C=C/C(C)=C/C=C/C(C)=C/C(=O)Nc2ccc(O)cc2)C(C)(C)CCC1	6.24 µM (inactive)
C[n+]1cc2c3c(ccc2c2ccc4cc5c(cc4c21)OCO5)OCO3	0.97 µM
CSc1ccc2c(c1)N(CCC1CCCCN1C)c1ccccc1S2 (centres undefined)	9.24 µM (inactive)
O=c1[nH]sc2cc(Cl)ccc12	9.43 µM (inactive)
Cc1cccc(C)c1NC(=O)CN1CCN(CCCC(c2ccc(F)cc2)c2ccc(F)cc2)CC1	9.37 µM (inactive)

Compound	IC50
O=C(c1ccc(F)cc1)C1CCN(CCn2c(=O)[nH]c3ccccc3c2=O)CC1	> 10 µM (inactive)
COc1cccc2c1C(=O)c1c(O)c3c(c(O)c1C2=O)C[C@@](O)(C(=O)CO)CC3OC1CC(N2CCOC(OC)C2)C(O)C(C)O1 (some centres undefined)	0.0442 µM
O=c1[nH]c(=O)n([C@H]2C[C@H](O)[C@@H](CO)O2)cc1I	> 10 µM (inactive)
Cc1ccc(Nc2nccc(N(C)c3ccc4c(C)n(C)nc4c3)n2)cc1S(N)(=O)=O	> 10 µM (inactive)
COc1ccccc1OCCNCC(O)COc1cccc2[nH]c3ccccc3c12 (centres undefined)	> 10 µM (inactive)
Cc1c(C)c2c(c(C)c1O)CC[C@@](C)(CCC[C@H](C)CCC[C@H](C)CCCC(C)C)O2	> 10 µM (inactive)
O=C(O)C1(C(=O)O)CCC1.[NH2-].[NH2-].[Pt+2]	> 10 µM (inactive)
CCCCCCCCOc1ccccc1C(=O)Nc1ccc(C(=O)OCC[N+](C)(CC)CC)cc1	8.47 µM (inactive)
Cc1cc(C2CCCCC2)n(O)c(=O)c1	> 10 µM (inactive)
CN(C)c1ccc(C(=C2C=CC(=[N+](C)C)C=C2)c2ccccc2)cc1	1.72 µM
Clc1ccc(C(Cn2ccnc2)OCc2ccc(Sc3ccccc3)cc2)c(Cl)c1 (centres undefined)	> 10 µM (inactive)
Nc1cc(C(F)(F)F)ccc1S	> 10 µM (inactive)
Clc1ccc(CSC(Cn2ccnc2)c2ccc(Cl)cc2Cl)cc1 (centres undefined)	8.76 µM (inactive)
CCC1C(=O)OCC1Cc1cncn1C (centres undefined)	> 10 µM (inactive)
CC(=O)O[C@@]12CO[C@@H]1C[C@H](O)[C@@]1(C)C(=O)[C@H](O)C3=C(C)[C@@H](OC(=O)[C@H](O)[C@@H](NC(=O)OC(C)(C)C)c4ccccc4)C[C@@](O)([C@@H](OC(=O)c4ccccc4)[C@H]21)C3(C)C	> 10 µM (inactive)
CCCOc1ccc2nc(NC(=O)OC)[nH]c2c1	> 10 µM (inactive)
O=c1oc2c(O)c(O)cc3c(=O)oc4c(O)c(O)cc1c4c23	> 10 µM (inactive)
CN1CCCC(CC2c3ccccc3Sc3ccccc32)C1 (centres undefined)	> 10 µM (inactive)
CCCCC(CC)CN=C(N)NC(N)=NCCCCCCN=C(N)NC(N)=NCC(CC)CCCC (centres undefined)	> 10 µM (inactive)
CC[N+](CC)(CC)CCOc1ccc(/C=C/c2ccccc2)cc1	> 10 µM (inactive)
COc1ccc(CCN2CCC(Nc3nc4ccccc4n3Cc3ccc(F)cc3)CC2)cc1	> 10 µM (inactive)
CCCn1cnc2c1c(=O)n(CCCCC(C)=O)c(=O)n2C	> 10 µM (inactive)
